In PubChem BioAssay (NCI):
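GI50: concentration for 50% inhibition of growth. TGI denotes the concentration required for complete inhibition of growth.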

Legend:
Assay in all cases: growth of human tumour cells (NCI), 384-well format
SF-295 CNS = tested on: SF-295 CNS
HCT-116 colon = tested on: HCT-116 colon
CAKI-1 renal = tested on: CAKI-1 renal
OVCAR-4 ovarian = tested on: OVCAR-4 ovarian
PC-3 prostate = tested on: PC-3 prostate
MDA-MB-231 breast = tested on: MDA-MB-231 breast
NCI-H460 NSCLC = tested on: NCI-H460 NSCLC
HOP-62 NSCLC = tested on: HOP-62 NSCLC
EKVX NSCLC = tested on: EKVX NSCLC
OVCAR-8 ovarian = tested on: OVCAR-8 ovarian
SNB-75 CNS = tested on: SNB-75 CNS
SN12C renal = tested on: SN12C renal
SNB-19 CNS = tested on: SNB-19 CNS
SK-MEL-5 melanoma = tested on: SK-MEL-5 melanoma
COLO 205 colon = tested on: COLO 205 colon
NCI-H322M lung = tested on: NCI-H322M lung
HCT-15 colon = tested on: HCT-15 colon
HS 578T breast = tested on: HS 578T breast
SF-539 CNS = tested on: SF-539 CNS
HOP-92 NSCLC = tested on: HOP-92 NSCLC
TK-10 renal = tested on: TK-10 renal
IGROV1 ovarian = tested on: IGROV1 ovarian
MCF7 breast = tested on: MCF7 breast
UACC-257 melanoma = tested on: UACC-257 melanoma
A549 NSCLC = tested on: A549 NSCLC
SR leukemia = tested on: SR leukemia
UACC-62 melanoma = tested on: UACC-62 melanoma
RXF 393 renal = tested on: RXF 393 renal
ACHN renal = tested on: ACHN renal
KM12 colon = tested on: KM12 colon
MDA-MB-468 breast = tested on: MDA-MB-468 breast
M14 melanoma = tested on: M14 melanoma
LOX IMVI melanoma = tested on: LOX IMVI melanoma
HL-60(TB) leukemia = tested on: HL-60(TB) leukemia
T-47D breast = tested on: T-47D breast
RPMI-8226 leukemia = tested on: RPMI-8226 leukemia
OVCAR-5 ovarian = tested on: OVCAR-5 ovarian
SK-OV-3 ovarian = tested on: SK-OV-3 ovarian
SK-MEL-28 melanoma = tested on: SK-MEL-28 melanoma
DU-145 prostate = tested on: DU-145 prostate
SF-268 CNS = tested on: SF-268 CNS
NCI-H522 lung = tested on: NCI-H522 lung
NCI-H226 lung = tested on: NCI-H226 lung
MALME-3M melanoma = tested on: MALME-3M melanoma
BT-549 breast = tested on: BT-549 breast
OVCAR-3 ovarian = tested on: OVCAR-3 ovarian
U251 glioblastoma = tested on: U251 glioblastoma
HT29 colon = tested on: HT29 colon
MDA-MB-435 melanoma = tested on: MDA-MB-435 melanoma
A498 renal = tested on: A498 renal
NCI-H23 lung = tested on: NCI-H23 lung
NCI/ADR-RES ovarian = tested on: NCI/ADR-RES ovarian
MOLT-4 leukemia = tested on: MOLT-4 leukemia
HCC-2998 colon = tested on: HCC-2998 colon

NC1(C(=O)N[C@@H](CCO)c2ccc(Cl)cc2)CCN(c2ncnc3[nH]ccc23)CC1
GI50 (SF-295 CNS): 1.14 µM
TGI (SF-295 CNS): 17 µM
GI50 (HCT-116 colon): 10.6 µM
TGI (HCT-116 colon): > 100 µM
GI50 (CAKI-1 renal): 10.9 µM
TGI (CAKI-1 renal): > 100 µM
GI50 (OVCAR-4 ovarian): 88.3 µM
TGI (OVCAR-4 ovarian): > 100 µM
GI50 (PC-3 prostate): 0.629 µM
TGI (PC-3 prostate): > 100 µM
GI50 (MDA-MB-231 breast): 84.9 µM
TGI (MDA-MB-231 breast): > 100 µM
GI50 (NCI-H460 NSCLC): 0.631 µM
TGI (NCI-H460 NSCLC): 25.2 µM
GI50 (HOP-62 NSCLC): 21.1 µM
TGI (HOP-62 NSCLC): > 100 µM
GI50 (EKVX NSCLC): 5.28 µM
TGI (EKVX NSCLC): > 100 µM
GI50 (OVCAR-8 ovarian): 26.4 µM
TGI (OVCAR-8 ovarian): > 100 µM
GI50 (SNB-75 CNS): 0.366 µM
TGI (SNB-75 CNS): 35.8 µM
GI50 (SN12C renal): 0.815 µM
TGI (SN12C renal): 25.5 µM
GI50 (SNB-19 CNS): 18.8 µM
TGI (SNB-19 CNS): > 100 µM
GI50 (SK-MEL-5 melanoma): 10 µM
TGI (SK-MEL-5 melanoma): 29.6 µM
GI50 (COLO 205 colon): 5.9 µM
TGI (COLO 205 colon): 73.6 µM
GI50 (NCI-H322M lung): 16.2 µM
TGI (NCI-H322M lung): > 100 µM
GI50 (HCT-15 colon): 14.7 µM
TGI (HCT-15 colon): > 100 µM
GI50 (HS 578T breast): 0.6 µM
TGI (HS 578T breast): 47 µM
GI50 (SF-539 CNS): 0.41 µM
TGI (SF-539 CNS): 57.7 µM
GI50 (HOP-92 NSCLC): > 100 µM
TGI (HOP-92 NSCLC): > 100 µM
GI50 (TK-10 renal): 3.3 µM
TGI (TK-10 renal): > 100 µM
GI50 (IGROV1 ovarian): 0.121 µM
TGI (IGROV1 ovarian): 2.09 µM
GI50 (MCF7 breast): 0.437 µM
TGI (MCF7 breast): > 100 µM
GI50 (UACC-257 melanoma): 4.55 µM
TGI (UACC-257 melanoma): 25.7 µM
GI50 (A549 NSCLC): 19.7 µM
TGI (A549 NSCLC): > 100 µM
GI50 (SR leukemia): 1.07 µM
TGI (SR leukemia): 4.49 µM
GI50 (UACC-62 melanoma): 2.2 µM
TGI (UACC-62 melanoma): 18.6 µM
GI50 (RXF 393 renal): 1.2 µM
TGI (RXF 393 renal): 44 µM
GI50 (ACHN renal): 13.1 µM
TGI (ACHN renal): > 100 µM
GI50 (KM12 colon): 1.08 µM
TGI (KM12 colon): > 100 µM
GI50 (MDA-MB-468 breast): 0.279 µM
TGI (MDA-MB-468 breast): 14.7 µM
GI50 (M14 melanoma): 6.69 µM
TGI (M14 melanoma): 27.6 µM
GI50 (LOX IMVI melanoma): 22.4 µM
TGI (LOX IMVI melanoma): > 100 µM
GI50 (HL-60(TB) leukemia): 12.7 µM
TGI (HL-60(TB) leukemia): 25.9 µM
GI50 (T-47D breast): 0.423 µM
TGI (T-47D breast): > 100 µM
GI50 (RPMI-8226 leukemia): 21.5 µM
TGI (RPMI-8226 leukemia): 84 µM
GI50 (OVCAR-5 ovarian): 21.9 µM
TGI (OVCAR-5 ovarian): 96.1 µM
GI50 (SK-OV-3 ovarian): 1.02 µM
TGI (SK-OV-3 ovarian): > 100 µM
GI50 (SK-MEL-28 melanoma): 4.49 µM
TGI (SK-MEL-28 melanoma): > 100 µM
GI50 (DU-145 prostate): 22.6 µM
TGI (DU-145 prostate): > 100 µM
GI50 (SF-268 CNS): 23.8 µM
TGI (SF-268 CNS): > 100 µM
GI50 (NCI-H522 lung): 9.74 µM
TGI (NCI-H522 lung): 24.2 µM
GI50 (NCI-H226 lung): 13 µM
TGI (NCI-H226 lung): 78.6 µM
GI50 (MALME-3M melanoma): 2.43 µM
TGI (MALME-3M melanoma): 15.3 µM
GI50 (BT-549 breast): 0.863 µM
TGI (BT-549 breast): 18.9 µM
GI50 (OVCAR-3 ovarian): 23.3 µM
TGI (OVCAR-3 ovarian): > 100 µM
GI50 (U251 glioblastoma): 5.38 µM
TGI (U251 glioblastoma): > 100 µM
GI50 (HT29 colon): 4.22 µM
TGI (HT29 colon): > 100 µM
GI50 (MDA-MB-435 melanoma): 6.05 µM
TGI (MDA-MB-435 melanoma): 87.8 µM
GI50 (A498 renal): 0.394 µM
TGI (A498 renal): 26.7 µM
GI50 (NCI-H23 lung): 15 µM
TGI (NCI-H23 lung): 65.8 µM
GI50 (NCI/ADR-RES ovarian): > 100 µM
TGI (NCI/ADR-RES ovarian): > 100 µM
GI50 (MOLT-4 leukemia): 0.453 µM
TGI (MOLT-4 leukemia): 1.88 µM
GI50 (HCC-2998 colon): 2.61 µM
TGI (HCC-2998 colon): > 100 µM
